Counter-ions that a name gives are not always drawn.
What was measured:
[1] = as reported in Japanese Patent Public Disclosure No. 25323/84; cited from earlier work
rats = assay: Acute toxicity via oral route in rats; type: in vivo
[2] = test system: superoxide anion (O2−) production level in thoracic aorta tissue sections; assay: Superoxide anion (O2−) production level in thoracic aorta tissue sections, lucigenin-enhanced chemiluminescence, after 8 weeks oral dosing; type: in vivo, Male Sprague-Dawley rats; conditions: endothelium-separated sections EC (−), comparison among the 4 groups (CTR, CTR+BH4, FR, FR+BH4)
Description: Male Sprague-Dawley rats (150 g, supplied from Charles River) were used to prepare a model group with insulin resistance induced by fructose feed loading (hereinafter referred to as “FR group”) according to the procedure described by Hwang et al. (Hwang, I-H. et al., Hypertension 10:512, 1987). A control group grown with a starch feed (hereinafter referred to as “CTR group”) was also prepared (FR group: n=16; CTR group: n=16). FR group received a feed containing 67% (hereinafter meaning % by weight) carbohydrate (containing 98% fructose available from Oriental Yeast Co., Ltd.), 13% fat and 20% protein, while CTR group received a feed containing 58% carbohydrate, 12% fat and […]. […] After 8 weeks, the thoracic aorta was collected. For each group, endothelium-separated sections (EC (−)) and non-separated sections (EC (+)) were prepared and examined for superoxide anion (O2^−) production level, endothelial NOS (eNOS) activity and endothelium-dependent vasorelaxation.
Group-to-group statistic analyses were made by one-way ANOVA, with the significance level being p<0.05. Multiple comparison was made by Bonferronl/Dunn, with the significance level being p<0.05.
Measurement of O2^−production level was made by the lucigenin-enhanced chemiluminescence method (Ohara et al., J. Clin. Invest. 91: 2546, 1993).

## C[C@H](O)[C@H](O)C1CNc2nc(N)[nH]c(=O)c2N1 (stereo partly drawn) [(6R,S)-5,6,7,8-tetrahydrobiopterin]
[1]
  toxicity: only slightly toxic

## C[C@H](O)[C@H](O)[C@H]1CNc2nc(N)[nH]c(=O)c2N1 [BH4 dihydrochloride, (6R)-L-erythro-5,6,7,8-tetrahydrobiopterin]
rats
  acute toxicity: ≥ 2 g/kg (body weight)

## C[C@H](O)[C@H](O)[C@H]1CNc2nc(N)[nH]c(=O)c2N1 [BH4, (6R)-L-erythro-5,6,7,8-tetrahydrobiopterin]
[2]
  O2− production level in EC (−): No significant difference

Source: US20020082261A1, “PROPHYLACTIC OR THERAPEUTIC AGENTS FOR DISEASES HAIVNG VASCULAR DYSFUNCTION ASSOCIATED WITH INSULIN RESISTANCE” (priority 1998, published 2002)
